Test results: PubChem BioAssay AID2060483 (Molecular Pharmacology Branch, DTP, NCI, 2025)

Tested on: K24384-001-R-PDC complex spheroids, viability
Experiment: Anticancer human tumor K24384-001-R-PDC patient-derived pancreatic adenocarcinoma cell line growth inhibition [GQUAD]
Conditions: for IC50: curve of first compound; for viability, T/C: stronger effect = lower value
Procedure, shortened: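 Multi-cell-type spheroids of tumor cells with HUVEC and mesenchymal stem cells, treated with drug combinations. Concentrations descend in half-log steps from near clinical Cmax, or from 10 microM where Cmax is unknown; viability read-out.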

[1] = second compound 0.0316 µM, first compound 0.0316 µM
[2] = second compound 0.0316 µM, first compound 0.1 µM
[3] = second compound 0.0316 µM, first compound 0.316 µM
[4] = second compound 0.0316 µM, first compound 1 µM
[5] = second compound 0.0316 µM, first compound 3.16 µM
[6] = second compound 0.0316 µM, first compound 10 µM
[7] = second compound 0.1 µM, first compound 0.0316 µM
[8] = second compound 0.1 µM, first compound 0.1 µM
[9] = second compound 0.1 µM, first compound 0.316 µM
[10] = second compound 0.1 µM, first compound 1 µM
[11] = second compound 0.1 µM, first compound 3.16 µM
[12] = second compound 0.1 µM, first compound 10 µM
[13] = second compound 0.316 µM, first compound 0.0316 µM
[14] = second compound 0.316 µM, first compound 0.1 µM
[15] = second compound 0.316 µM, first compound 0.316 µM
[16] = second compound 0.316 µM, first compound 1 µM
[17] = second compound 0.316 µM, first compound 3.16 µM
[18] = second compound 0.316 µM, first compound 10 µM
[19] = second compound 1 µM, first compound 0.0316 µM
[20] = second compound 1 µM, first compound 0.1 µM
[21] = second compound 1 µM, first compound 0.316 µM
[22] = second compound 1 µM, first compound 1 µM
[23] = second compound 1 µM, first compound 3.16 µM
[24] = second compound 1 µM, first compound 10 µM
[25] = second compound 3.16 µM, first compound 0.0316 µM
[26] = second compound 3.16 µM, first compound 0.1 µM
[27] = second compound 3.16 µM, first compound 0.316 µM
[28] = second compound 3.16 µM, first compound 1 µM
[29] = second compound 3.16 µM, first compound 3.16 µM
[30] = second compound 3.16 µM, first compound 10 µM
[31] = second compound 10 µM, first compound 0.0316 µM
[32] = second compound 10 µM, first compound 0.1 µM
[33] = second compound 10 µM, first compound 0.316 µM
[34] = second compound 10 µM, first compound 1 µM
[35] = second compound 10 µM, first compound 3.16 µM
[36] = second compound 10 µM, first compound 10 µM
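Further: spheroids exposed to compounds for seven days.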

CC(C)n1c(=O)n(C)c2cnc3cc(F)c(-c4ccc(OCCCN5CCCCC5)nc4)cc3c21 + CN(C)c1ccc(Nc2c3ccc(NC(=O)CCN4CCCC4)cc3nc3cc(NC(=O)CCN4CCCC4)ccc23)cc1
IC50 (second compound 0.0316 µM): > 10000 nM
IC50 (second compound 0.1 µM): > 10000 nM
IC50 (second compound 0.316 µM): > 10000 nM
IC50 (second compound 1 µM): > 10000 nM
IC50 (second compound 3.16 µM): 9510 nM
IC50 (second compound 10 µM): 622 nM
viability, T/C [1]: 97.1%
viability, T/C [2]: 82.6%
viability, T/C [3]: 109%
viability, T/C [4]: 116%
viability, T/C [5]: 119%
viability, T/C [6]: 84.1%
viability, T/C [7]: 85.7%
viability, T/C [8]: 101%
viability, T/C [9]: 121%
viability, T/C [10]: 99.4%
viability, T/C [11]: 122%
viability, T/C [12]: 79%
viability, T/C [13]: 80.5%
viability, T/C [14]: 97.2%
viability, T/C [15]: 109%
viability, T/C [16]: 110%
viability, T/C [17]: 129%
viability, T/C [18]: 86.9%
viability, T/C [19]: 77.9%
viability, T/C [20]: 88.7%
viability, T/C [21]: 92.8%
viability, T/C [22]: 118%
viability, T/C [23]: 109%
viability, T/C [24]: 67.3%
viability, T/C [25]: 90.2%
viability, T/C [26]: 89.2%
viability, T/C [27]: 105%
viability, T/C [28]: 95.7%
viability, T/C [29]: 78.2%
viability, T/C [30]: 48.7%
viability, T/C [31]: 69.8%
viability, T/C [32]: 70.5%
viability, T/C [33]: 55.9%
viability, T/C [34]: 44.7%
viability, T/C [35]: 31%
viability, T/C [36]: 21.5%

CC1COCCN1c1cc(-c2ccnn2C)c2ccnc(-c3ccn[nH]3)c2n1 (stereo not given) + CN(C)c1ccc(Nc2c3ccc(NC(=O)CCN4CCCC4)cc3nc3cc(NC(=O)CCN4CCCC4)ccc23)cc1
IC50 (second compound 0.0316 µM): 72.2 nM
IC50 (second compound 0.1 µM): 89.1 nM
IC50 (second compound 0.316 µM): 131 nM
IC50 (second compound 1 µM): 111 nM
IC50 (second compound 3.16 µM): 88.3 nM
IC50 (second compound 10 µM): 113 nM
viability, T/C [1]: 69.7%
viability, T/C [2]: 41.9%
viability, T/C [3]: 35.4%
viability, T/C [4]: 24.4%
viability, T/C [5]: 29.6%
viability, T/C [6]: 32.9%
viability, T/C [7]: 67.6%
viability, T/C [8]: 48%
viability, T/C [9]: 27.2%
viability, T/C [10]: 24.9%
viability, T/C [11]: 30.9%
viability, T/C [12]: 31.9%
viability, T/C [13]: 79.2%
viability, T/C [14]: 56.4%
viability, T/C [15]: 26.1%
viability, T/C [16]: 23.6%
viability, T/C [17]: 33.6%
viability, T/C [18]: 32.3%
viability, T/C [19]: 78.1%
viability, T/C [20]: 52%
viability, T/C [21]: 24.3%
viability, T/C [22]: 28.8%
viability, T/C [23]: 34.2%
viability, T/C [24]: 30.6%
viability, T/C [25]: 91.4%
viability, T/C [26]: 44.7%
viability, T/C [27]: 30.9%
viability, T/C [28]: 32.5%
viability, T/C [29]: 30.8%
viability, T/C [30]: 24.6%
viability, T/C [31]: 79.6%
viability, T/C [32]: 49%
viability, T/C [33]: 43.1%
viability, T/C [34]: 30.6%
viability, T/C [35]: 28.5%
viability, T/C [36]: 31.7%

CC1COCCN1c1cc(C2(O)CC3CCC(C2)O3)c2cnn(-c3ccn[nH]3)c2n1 (stereo not given) + CN(C)c1ccc(Nc2c3ccc(NC(=O)CCN4CCCC4)cc3nc3cc(NC(=O)CCN4CCCC4)ccc23)cc1
IC50 (second compound 0.0316 µM): 103 nM
IC50 (second compound 0.1 µM): 74.6 nM
IC50 (second compound 0.316 µM): 74.3 nM
IC50 (second compound 1 µM): 68.6 nM
IC50 (second compound 3.16 µM): 61.6 nM
IC50 (second compound 10 µM): 119 nM
viability, T/C [1]: 56.5%
viability, T/C [2]: 52%
viability, T/C [3]: 33.5%
viability, T/C [4]: 23.8%
viability, T/C [5]: 25.4%
viability, T/C [6]: 14.3%
viability, T/C [7]: 68%
viability, T/C [8]: 43.9%
viability, T/C [9]: 29.6%
viability, T/C [10]: 25.1%
viability, T/C [11]: 26.6%
viability, T/C [12]: 15%
viability, T/C [13]: 70.3%
viability, T/C [14]: 44%
viability, T/C [15]: 24.6%
viability, T/C [16]: 26%
viability, T/C [17]: 27.2%
viability, T/C [18]: 14.1%
viability, T/C [19]: 62.8%
viability, T/C [20]: 45%
viability, T/C [21]: 27.1%
viability, T/C [22]: 27.7%
viability, T/C [23]: 27.3%
viability, T/C [24]: 13.3%
viability, T/C [25]: 63.2%
viability, T/C [26]: 40.5%
viability, T/C [27]: 24.9%
viability, T/C [28]: 27.9%
viability, T/C [29]: 24.9%
viability, T/C [30]: 12.9%
viability, T/C [31]: 76.2%
viability, T/C [32]: 48.5%
viability, T/C [33]: 35.7%
viability, T/C [34]: 32.5%
viability, T/C [35]: 25.4%
viability, T/C [36]: 12.3%

CC1COCCN1c1cc(C2(S(C)(=N)=O)CC2)nc(-c2ccnc3[nH]ccc23)n1 (stereo not given) + CN(C)c1ccc(Nc2c3ccc(NC(=O)CCN4CCCC4)cc3nc3cc(NC(=O)CCN4CCCC4)ccc23)cc1
IC50 (second compound 0.0316 µM): 1530 nM
IC50 (second compound 0.1 µM): 1600 nM
IC50 (second compound 0.316 µM): 1710 nM
IC50 (second compound 1 µM): 1700 nM
IC50 (second compound 3.16 µM): 1680 nM
IC50 (second compound 10 µM): 1700 nM
viability, T/C [1]: 95.2%
viability, T/C [2]: 90.1%
viability, T/C [3]: 113%
viability, T/C [4]: 64.1%
viability, T/C [5]: 28.2%
viability, T/C [6]: 24.2%
viability, T/C [7]: 90.3%
viability, T/C [8]: 115%
viability, T/C [9]: 84.4%
viability, T/C [10]: 60.9%
viability, T/C [11]: 36.4%
viability, T/C [12]: 23.2%
viability, T/C [13]: 83.3%
viability, T/C [14]: 92.9%
viability, T/C [15]: 86.1%
viability, T/C [16]: 56.9%
viability, T/C [17]: 42.2%
viability, T/C [18]: 26.1%
viability, T/C [19]: 86.5%
viability, T/C [20]: 104%
viability, T/C [21]: 86.2%
viability, T/C [22]: 62.2%
viability, T/C [23]: 35.9%
viability, T/C [24]: 32.1%
viability, T/C [25]: 90.2%
viability, T/C [26]: 98.6%
viability, T/C [27]: 99.3%
viability, T/C [28]: 60.8%
viability, T/C [29]: 39.6%
viability, T/C [30]: 23.4%
viability, T/C [31]: 91.6%
viability, T/C [32]: 102%
viability, T/C [33]: 86.9%
viability, T/C [34]: 62.9%
viability, T/C [35]: 35.4%
viability, T/C [36]: 28.2%

O=C(c1cc(Cc2n[nH]c(=O)c3ccccc23)ccc1F)N1CCN(C(=O)C2CC2)CC1 + CN(C)c1ccc(Nc2c3ccc(NC(=O)CCN4CCCC4)cc3nc3cc(NC(=O)CCN4CCCC4)ccc23)cc1
IC50 (second compound 0.0316 µM): > 10000 nM
IC50 (second compound 0.1 µM): > 10000 nM
IC50 (second compound 0.316 µM): > 10000 nM
IC50 (second compound 1 µM): > 10000 nM
IC50 (second compound 3.16 µM): > 10000 nM
IC50 (second compound 10 µM): > 10000 nM
viability, T/C [1]: 91.5%
viability, T/C [2]: 87.2%
viability, T/C [3]: 103%
viability, T/C [4]: 85.3%
viability, T/C [5]: 94%
viability, T/C [6]: 65.3%
viability, T/C [7]: 98.4%
viability, T/C [8]: 97%
viability, T/C [9]: 102%
viability, T/C [10]: 82.5%
viability, T/C [11]: 78.7%
viability, T/C [12]: 76.3%
viability, T/C [13]: 82.2%
viability, T/C [14]: 90.1%
viability, T/C [15]: 102%
viability, T/C [16]: 81.2%
viability, T/C [17]: 87.8%
viability, T/C [18]: 72.2%
viability, T/C [19]: 85.3%
viability, T/C [20]: 103%
viability, T/C [21]: 97.1%
viability, T/C [22]: 108%
viability, T/C [23]: 92.9%
viability, T/C [24]: 71.2%
viability, T/C [25]: 89.5%
viability, T/C [26]: 90.6%
viability, T/C [27]: 92%
viability, T/C [28]: 100%
viability, T/C [29]: 86.5%
viability, T/C [30]: 62.2%
viability, T/C [31]: 86.4%
viability, T/C [32]: 89.5%
viability, T/C [33]: 94.6%
viability, T/C [34]: 91.2%
viability, T/C [35]: 86.2%
viability, T/C [36]: 61.4%
